Experimental data published in patent US8329685B1, “Enhancement of the action of anti-infective agents and of central and peripheral nervous system agents and transportation of nucleic acid substances” (priority 2001, dated 2012).

System: M.Tb. drug resistant strain TV25
Format: cell-based, Mycobacterium tuberculosis

In the case of `NNC(=O)c1ccncc1` [INH, Isoniazid], the “additional effectiveness of INH in the presence of MZL” value is reported as 41.5% and the “effect of INH alone” value (without MZL) is reported as “no effect”.
